Assay results: PubChem BioAssay AID234 (DTP/NCI, 2004)
Where “and” joins values, the source holds several entries; their conditions need not be identical. Identical values can stand only once. Records with an inconclusive call do not appear.

System: C3AKF1 mice, hamster liver cystadenocarcinoma s.c., tumor weight T/C
Assay: NCI In Vivo Anticancer Drug Screen. Data for tumor model Cystadenocarcinoma, Liver (No. 1) (Hamster) (subcutaneous) in C3AKF1 (CHKRF1) mice
Settings: endpoint: mean tumor weight, higher = larger tumour
Experimental: The antitumor activity of compounds was measured in mice bearing transplantable tumors. Survival or tumor size were measured and the results are expressed as the measurement made in the treated group (T) divided by the measurement made in the vehicle treated control group (C). The tumor model used in this assay is Cystadenocarcinoma, Liver (No. 1) (Hamster) (subcutaneous) in C3AKF1 (CHKRF1) mice

[1] = dose: 0.5 mg/kg/injection, schedule: Q01DX010 (ip), vehicle: carboxymethylcellulose (CMC)
[2] = dose: 1.0 mg/kg/injection, schedule: Q01DX010 (ip), vehicle: carboxymethylcellulose (CMC)
[3] = dose: 2.0 mg/kg/injection, schedule: Q01DX010 (ip), vehicle: carboxymethylcellulose (CMC)
[4] = dose: 20.0 mg/kg/injection, schedule: Q01DX010 (ip), vehicle: carboxymethylcellulose (CMC)
[5] = dose: 40.0 mg/kg/injection, schedule: Q01DX010 (ip), vehicle: carboxymethylcellulose (CMC)
[6] = dose: 25.0 mg/kg/injection, schedule: Q01DX010 (ip), vehicle: carboxymethylcellulose (CMC)
[7] = dose: 50.0 mg/kg/injection, schedule: Q01DX010 (ip), vehicle: carboxymethylcellulose (CMC)
[8] = dose: 100.0 mg/kg/injection, schedule: Q01DX010 (ip), vehicle: carboxymethylcellulose (CMC)
[9] = dose: 1.5 mg/kg/injection, schedule: Q01DX010 (ip), vehicle: carboxymethylcellulose (CMC)
[10] = dose: 3.0 mg/kg/injection, schedule: Q01DX010 (ip), vehicle: carboxymethylcellulose (CMC)
[11] = dose: 12.0 mg/kg/injection, schedule: Q01DX010 (ip), vehicle: carboxymethylcellulose (CMC)
[12] = dose: 9.5 mg/kg/injection, schedule: Q01DX010 (ip), vehicle: carboxymethylcellulose (CMC)
[13] = dose: 19.0 mg/kg/injection, schedule: Q01DX010 (ip), vehicle: carboxymethylcellulose (CMC)
[14] = dose: 37.5 mg/kg/injection, schedule: Q01DX010 (ip), vehicle: carboxymethylcellulose (CMC)
[15] = dose: 75.0 mg/kg/injection, schedule: Q01DX010 (ip), vehicle: carboxymethylcellulose (CMC)
[16] = dose: 400.0 mg/kg/injection, schedule: Q01DX010 (ip), vehicle: carboxymethylcellulose (CMC)
[17] = dose: 4.0 mg/kg/injection, schedule: Q01DX010 (ip), vehicle: carboxymethylcellulose (CMC)
[18] = dose: 30.0 mg/kg/injection, schedule: Q01DX010 (ip), vehicle: carboxymethylcellulose (CMC)
[19] = dose: 60.0 mg/kg/injection, schedule: Q01DX010 (ip), vehicle: carboxymethylcellulose (CMC)

Structure (SMILES): N#C[C@@H]1C2C=CC(CC2)[C@H]1C#N
- T/C [1]: 72 % of control
- T/C [2]: 68 % of control
- T/C [3]: 57 % of control

Structure (SMILES): CS(=O)(=O)OCC(=O)NCCNC(=O)COS(C)(=O)=O
- T/C [4]: 105 % of control
- T/C [5]: 100 % of control

Structure (SMILES): O=[n+]1c2c(n([O-])c3ccccc31)-c1cccc3cccc-2c13
- T/C [6]: 64 % of control
- T/C [7]: 74 % of control
- T/C [8]: 48 % of control

Structure (SMILES): CCCC(=O)NC1=C(N2CC2)C(=O)C(NC(=O)CCC)=C(N2CC2)C1=O
- T/C (dose: 0.5 mg/kg/injection, schedule: Q01DX010 (ip), vehicle: saline): 69 % of control and 86 % of control
- T/C (dose: 0.75 mg/kg/injection, schedule: Q01DX010 (ip), vehicle: saline): 47 % of control and 49 % of control
- T/C (dose: 1.7 mg/kg/injection, schedule: Q01DX010 (ip), vehicle: saline): 32 % of control and 48 % of control
- T/C (dose: 2.6 mg/kg/injection, schedule: Q01DX010 (ip), vehicle: saline): 14 % of control

Structure (SMILES): CSc1ncc(Br)c(Sc2nc(N)nc3nc[nH]c23)n1
- T/C [9]: 106 % of control
- T/C [10]: 117 % of control
- T/C (dose: 6.0 mg/kg/injection, schedule: Q01DX010 (ip), vehicle: carboxymethylcellulose (CMC)): 92 % of control
- T/C [11]: 74 % of control and 85 % of control and 92 % of control
- T/C (dose: 18.0 mg/kg/injection, schedule: Q01DX010 (ip), vehicle: carboxymethylcellulose (CMC)): 103 % of control
- T/C (dose: 27.0 mg/kg/injection, schedule: Q01DX010 (ip), vehicle: carboxymethylcellulose (CMC)): 77 % of control and 81 % of control
- T/C [5]: 65 % of control

Structure (SMILES): CN(C)Nc1ncnc2nc[nH]c12
- T/C [4]: 107 % of control
- T/C [5]: 102 % of control

Structure (SMILES): O=c1[nH]c2cc(Cl)c(Cl)cc2o1
- T/C [12]: 119 % of control
- T/C [13]: 104 % of control
- T/C [14]: 95 % of control and 107 % of control
- T/C [15]: 98 % of control

Structure (SMILES): Nc1nc(N)c(N=Nc2ccccc2)c(=O)[nH]1
- T/C [7]: 100 % of control
- T/C [8]: 110 % of control
- T/C (dose: 200.0 mg/kg/injection, schedule: Q01DX010 (ip), vehicle: carboxymethylcellulose (CMC)): 93 % of control
- T/C [16]: 100 % of control

Structure (SMILES): O=C(C[N+]12CN3CN(CN(C3)C1)C2)c1ccc(Cl)cc1
- T/C [14]: 99 % of control
- T/C [15]: 109 % of control
- T/C (dose: 150.0 mg/kg/injection, schedule: Q01DX010 (ip), vehicle: carboxymethylcellulose (CMC)): 90 % of control
- T/C (dose: 300.0 mg/kg/injection, schedule: Q01DX010 (ip), vehicle: carboxymethylcellulose (CMC)): 69 % of control

Structure (SMILES): CCOc1ccc(Nc2ncnc3nc[nH]c23)cc1CN(CCCl)CCCl
- T/C (dose: 1.0 mg/kg/injection, schedule: Q01DX010 (ip), vehicle: saline): 78 % of control
- T/C (dose: 2.0 mg/kg/injection, schedule: Q01DX010 (ip), vehicle: saline): 99 % of control
- T/C (dose: 4.0 mg/kg/injection, schedule: Q01DX010 (ip), vehicle: saline): 98 % of control

Structure (SMILES): Cc1ccc(N=NN(C)C)cc1
- T/C [6]: 96 % of control
- T/C [7]: 93 % of control

Structure (SMILES): Cc1nc(N)nc(N)c1-c1ccc(Cl)c(Cl)c1
- T/C (dose: 0.75 mg/kg/injection, schedule: Q01DX010 (ip), vehicle: carboxymethylcellulose (CMC)): 83 % of control
- T/C [9]: 106 % of control
- T/C [10]: 100 % of control

Structure (SMILES): O=C(O)CCc1c[nH]c2ccc(N(CCCl)CCCl)cc12
- T/C (dose: 1.2 mg/kg/injection, schedule: Q01DX010 (ip), vehicle: carboxymethylcellulose (CMC)): 109 % of control
- T/C (dose: 2.5 mg/kg/injection, schedule: Q01DX010 (ip), vehicle: carboxymethylcellulose (CMC)): 97 % of control
- T/C (dose: 5.0 mg/kg/injection, schedule: Q01DX010 (ip), vehicle: carboxymethylcellulose (CMC)): 77 % of control
- T/C (dose: 10.0 mg/kg/injection, schedule: Q01DX010 (ip), vehicle: carboxymethylcellulose (CMC)): 69 % of control

Structure (SMILES): S=C(N=Nc1ccccc1)NNc1ccccc1
- T/C [14]: 98 % of control

Structure (SMILES): N[C@@H](Cc1ccc(N(CCCl)CCCl)cc1)C(=O)O
- T/C [1]: 57 % of control
- T/C [2]: 63 % of control
- T/C [3]: 92 % of control
- T/C [17]: 75 % of control

Structure (SMILES): Clc1ccc2c(Cl)ncnc2c1
- T/C (dose: 4.8 mg/kg/injection, schedule: Q01DX010 (ip), vehicle: carboxymethylcellulose (CMC)): 116 % of control
- T/C [12]: 110 % of control
- T/C [13]: 96 % of control
- T/C [14]: 104 % of control

Structure (SMILES): CCCNC(=NC)c1ccc(NC(=O)c2ccc(C(=O)Nc3ccc(C(=NC)NCCC)cc3)cc2)cc1
- T/C [11]: 99 % of control

Structure (SMILES): CCc1c(CC(=O)O)c2cc(C)ccc2n1Cc1ccc(Cl)cc1
- T/C [7]: 70 % of control
- T/C [8]: 96 % of control

Structure (SMILES): CCCCn1cnc2c(SC)nc(N)nc21
- T/C [18]: 88 % of control
- T/C [19]: 74 % of control
- T/C (dose: 115.0 mg/kg/injection, schedule: Q01DX010 (ip), vehicle: carboxymethylcellulose (CMC)): 75 % of control

Structure (SMILES): NC(=O)/C=C/C(=O)O (tested in a mixture with another compound)
- T/C (dose: 31.0 mg/kg/injection, schedule: Q#A X010 (ip), vehicle: saline): 68 % of control

Structure (SMILES): CCN(CC)Cc1cc(Nc2c3ccccc3nc3cc(Cl)ccc23)ccc1O
- T/C (dose: 6.25 mg/kg/injection, schedule: Q01DX010 (ip), vehicle: carboxymethylcellulose (CMC)): 84 % of control
- T/C (dose: 12.5 mg/kg/injection, schedule: Q01DX010 (ip), vehicle: carboxymethylcellulose (CMC)): 106 % of control
- T/C [6]: 87 % of control
- T/C [7]: 88 % of control

Structure (SMILES): CC1CN1C(=O)c1cc(C(=O)N2CC2C)cc(C(=O)N2CC2C)c1 (stereo not drawn)
- T/C (dose: 15.0 mg/kg/injection, schedule: Q01DX010 (ip), vehicle: carboxymethylcellulose (CMC)): 83 % of control
- T/C [18]: 84 % of control
- T/C [19]: 118 % of control

Structure (SMILES): COc1ccc(Nc2ccnc3cc(Cl)ccc23)cc1CN(CCCl)CCCl
- T/C [1]: 95 % of control
- T/C [2]: 91 % of control
- T/C [3]: 93 % of control
- T/C [17]: 70 % of control

Structure (SMILES): c1ccc2c(c1)ccc1cc3c(ccc4ccccc43)cc12
- T/C (dose: 62.5 mg/kg/injection, schedule: Q01DX010 (ip), vehicle: carboxymethylcellulose (CMC)): 64 % of control
- T/C (dose: 125.0 mg/kg/injection, schedule: Q01DX010 (ip), vehicle: carboxymethylcellulose (CMC)): 88 % of control
- T/C (dose: 250.0 mg/kg/injection, schedule: Q01DX010 (ip), vehicle: carboxymethylcellulose (CMC)): 86 % of control

Structure (SMILES): Clc1ncnc2c1ncn2C1CCCO1 (stereo not drawn)
- T/C [6]: 77 % of control
- T/C [8]: 81 % of control and 93 % of control
- T/C [16]: 52 % of control and 72 % of control
- T/C (dose: 800.0 mg/kg/injection, schedule: Q01DX010 (ip), vehicle: carboxymethylcellulose (CMC)): 113 % of control

Structure (SMILES): CCCCCCCCCCCC[n+]1cccc2ccccc21
- T/C (dose: 0.25 mg/kg/injection, schedule: Q01DX010 (ip), vehicle: carboxymethylcellulose (CMC)): 73 % of control
- T/C [1]: 81 % of control
- T/C [2]: 91 % of control

Structure (SMILES): Fc1ccc(CSc2ncnc3c2ncn3C2CCCCO2)cc1 (stereo not drawn)
- T/C (dose: 45.0 mg/kg/injection, schedule: Q01DX010 (ip), vehicle: carboxymethylcellulose (CMC)): 102 % of control
- T/C (dose: 90.0 mg/kg/injection, schedule: Q01DX010 (ip), vehicle: carboxymethylcellulose (CMC)): 111 % of control
- T/C (dose: 360.0 mg/kg/injection, schedule: Q01DX010 (ip), vehicle: carboxymethylcellulose (CMC)): 57 % of control and 78 % of control
- T/C (dose: 720.0 mg/kg/injection, schedule: Q01DX010 (ip), vehicle: carboxymethylcellulose (CMC)): 75 % of control

Structure (SMILES): CCN(CC)CCN1C(=O)c2cccc3cccc(c23)C1=O
- T/C (dose: 25.0 mg/kg/injection, schedule: Q01DX010 (ip), vehicle: saline): 90 % of control
- T/C (dose: 50.0 mg/kg/injection, schedule: Q01DX010 (ip), vehicle: saline): 163 % of control
- T/C (dose: 100.0 mg/kg/injection, schedule: Q01DX010 (ip), vehicle: saline): 109 % of control

Structure (SMILES): CC(=O)NCCSC(=O)C(=O)SCCNC(C)=O
- T/C [6]: 72 % of control
- T/C [7]: 111 % of control
- T/C [8]: 65 % of control

Structure (SMILES): CC(C)=CC1C(C(=O)OCc2ccc(C)cc2C)C1(C)C (stereo not drawn)
- T/C (dose: 87.5 mg/kg/injection, schedule: Q01DX010 (ip), vehicle: carboxymethylcellulose (CMC)): 90 % of control
- T/C (dose: 175.0 mg/kg/injection, schedule: Q01DX010 (ip), vehicle: carboxymethylcellulose (CMC)): 72 % of control
- T/C (dose: 350.0 mg/kg/injection, schedule: Q01DX010 (ip), vehicle: carboxymethylcellulose (CMC)): 63 % of control

Structure (SMILES): CCN(CC)CC(C)Nc1ccc(C)c2sc3ccccc3c(=O)c12 (stereo not drawn)
- T/C [6]: 98 % of control
- T/C [7]: 87 % of control
- T/C [8]: 76 % of control
